Reference: patent US11897862B2 (Gilead Sciences, Inc., priority 2022, dated 2024)

Assays:
IKZF2 = IKZF2 (Homo sapiens, UniProt Q96SW2+Q9UKS7); assay: HEK293 HiBiT in vitro degradation of IKZF2; format: cell-based; set-up: expressed in transfected cells; conditions: for Dmax: HEK293, HEK293 HiBiT, maximum degradation at the highest concentration tested; for DC50: HEK293 HiBiT, 18-24 hr incubation, normalized to DMSO control, read-out: IKZF2 EC50
Method in brief: (§1)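 Read-out: Nano-Glo lytic HiBiT luminescence after 18-24 h compound exposure at 37 °C, fitted to EC50 and Dmax. Cells were Flp-In T-REx HEK293 expressing linker-HiBiT fused to the C-terminus of each target, doxycycline-induced ([…] final) overnight beforehand.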

IKZF1 = biological target: T1, IKZF1 (Homo sapiens, UniProt Q13422+Q96SW2); assay: HEK293 HiBiT in vitro degradation of IKZF1; format: cell-based; conditions: for DC50: HEK293 HiBiT, 18-24 hr incubation, normalized to DMSO control, read-out: IKZF1 EC50; for Dmax: HEK293, HEK293 HiBiT, maximum degradation at the highest concentration tested
T1 construct: expressed in transfected cells
Method in brief: as §1

T1 sequence (Q13422 whole entry): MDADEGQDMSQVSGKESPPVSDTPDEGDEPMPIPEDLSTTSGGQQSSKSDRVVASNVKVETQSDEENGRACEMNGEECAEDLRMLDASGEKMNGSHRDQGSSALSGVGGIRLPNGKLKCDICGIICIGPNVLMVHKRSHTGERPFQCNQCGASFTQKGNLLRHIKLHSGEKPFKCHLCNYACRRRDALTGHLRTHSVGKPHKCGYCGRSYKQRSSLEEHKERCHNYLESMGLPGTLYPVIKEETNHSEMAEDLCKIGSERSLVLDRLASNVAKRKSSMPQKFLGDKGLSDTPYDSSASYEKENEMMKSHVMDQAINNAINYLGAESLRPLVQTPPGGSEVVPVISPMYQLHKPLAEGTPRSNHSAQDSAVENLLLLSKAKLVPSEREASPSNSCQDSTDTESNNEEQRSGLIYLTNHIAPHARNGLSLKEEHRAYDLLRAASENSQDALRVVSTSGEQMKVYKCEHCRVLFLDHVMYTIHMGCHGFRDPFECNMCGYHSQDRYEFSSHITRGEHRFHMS
T1 sequence (Q96SW2 whole entry): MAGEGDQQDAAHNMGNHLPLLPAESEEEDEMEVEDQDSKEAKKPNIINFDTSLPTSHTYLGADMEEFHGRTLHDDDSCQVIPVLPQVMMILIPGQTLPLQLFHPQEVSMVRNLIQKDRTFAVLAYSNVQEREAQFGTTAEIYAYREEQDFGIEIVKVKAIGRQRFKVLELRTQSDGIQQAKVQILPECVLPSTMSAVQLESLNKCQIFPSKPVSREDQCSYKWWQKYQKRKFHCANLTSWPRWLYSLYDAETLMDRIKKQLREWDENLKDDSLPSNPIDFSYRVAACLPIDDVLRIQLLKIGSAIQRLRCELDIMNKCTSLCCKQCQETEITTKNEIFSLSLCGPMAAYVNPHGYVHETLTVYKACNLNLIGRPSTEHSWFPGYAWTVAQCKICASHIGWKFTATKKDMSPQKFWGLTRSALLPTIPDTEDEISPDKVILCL
T1 sequence (Q16531 whole entry partner): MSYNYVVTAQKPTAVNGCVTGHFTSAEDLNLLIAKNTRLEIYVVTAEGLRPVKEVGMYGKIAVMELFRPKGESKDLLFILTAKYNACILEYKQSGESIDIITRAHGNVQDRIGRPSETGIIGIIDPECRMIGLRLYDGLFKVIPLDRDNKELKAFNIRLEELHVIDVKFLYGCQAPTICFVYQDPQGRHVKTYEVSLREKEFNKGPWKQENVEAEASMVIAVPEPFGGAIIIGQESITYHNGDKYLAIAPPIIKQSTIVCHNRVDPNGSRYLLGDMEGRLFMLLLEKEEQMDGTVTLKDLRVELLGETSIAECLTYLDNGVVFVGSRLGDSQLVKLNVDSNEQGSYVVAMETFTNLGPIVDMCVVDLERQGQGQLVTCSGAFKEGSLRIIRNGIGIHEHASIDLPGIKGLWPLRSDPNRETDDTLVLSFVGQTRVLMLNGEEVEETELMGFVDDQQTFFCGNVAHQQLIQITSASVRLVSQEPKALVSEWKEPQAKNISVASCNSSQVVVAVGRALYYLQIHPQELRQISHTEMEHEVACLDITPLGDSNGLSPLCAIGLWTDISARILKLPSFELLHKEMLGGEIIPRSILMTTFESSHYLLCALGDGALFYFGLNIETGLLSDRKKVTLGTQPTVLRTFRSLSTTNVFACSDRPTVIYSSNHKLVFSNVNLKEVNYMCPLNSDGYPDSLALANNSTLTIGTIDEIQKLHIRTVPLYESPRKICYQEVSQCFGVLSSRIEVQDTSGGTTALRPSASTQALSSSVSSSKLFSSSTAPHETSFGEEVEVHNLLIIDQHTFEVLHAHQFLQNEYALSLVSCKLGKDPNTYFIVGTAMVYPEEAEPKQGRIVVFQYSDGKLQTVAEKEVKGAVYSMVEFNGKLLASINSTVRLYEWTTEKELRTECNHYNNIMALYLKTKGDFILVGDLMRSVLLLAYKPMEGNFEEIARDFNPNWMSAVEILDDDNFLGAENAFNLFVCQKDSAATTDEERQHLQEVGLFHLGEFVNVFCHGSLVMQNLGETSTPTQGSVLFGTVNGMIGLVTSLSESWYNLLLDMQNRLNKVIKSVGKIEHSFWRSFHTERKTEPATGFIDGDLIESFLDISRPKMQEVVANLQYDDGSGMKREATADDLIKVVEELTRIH
Sequence of IKZF2 (Q9UKS7 1-500 isoform Q9UKS7-2): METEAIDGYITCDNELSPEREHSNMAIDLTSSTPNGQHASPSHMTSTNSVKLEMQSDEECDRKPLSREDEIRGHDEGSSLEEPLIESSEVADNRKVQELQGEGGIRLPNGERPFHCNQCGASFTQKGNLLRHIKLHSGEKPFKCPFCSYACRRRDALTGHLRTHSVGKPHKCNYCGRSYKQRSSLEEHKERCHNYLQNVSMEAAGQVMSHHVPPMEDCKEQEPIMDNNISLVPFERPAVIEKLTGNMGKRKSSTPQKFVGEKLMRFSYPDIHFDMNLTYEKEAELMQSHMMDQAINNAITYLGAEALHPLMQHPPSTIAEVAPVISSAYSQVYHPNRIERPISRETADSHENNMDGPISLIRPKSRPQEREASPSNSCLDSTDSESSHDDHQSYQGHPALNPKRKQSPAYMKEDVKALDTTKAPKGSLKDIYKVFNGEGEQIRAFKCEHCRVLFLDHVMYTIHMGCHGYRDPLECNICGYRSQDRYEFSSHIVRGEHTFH
Sequence of IKZF2 (Q96SW2 whole entry, the tested form may be a part): as the sequence (Q96SW2 whole entry) above
Sequence of IKZF2 (Q16531 whole entry partner, the tested form may be a part): as the sequence (Q16531 whole entry partner) above

SMILES	Dmax (IKZF2) [%]	DC50 (IKZF2) [nM]	DC50 (IKZF1) [nM]	Dmax (IKZF1) [%]
O=C1CCC(N2Cc3cc(C[C@H]4CCCC[C@@H]4NCc4ccccn4)ccc3C2=O)C(=O)N1 (stereo partly drawn) [Example 45, 3-(1-oxo-5-(((1R,2S)-2-((pyridin-2-ylmethyl)amino)cyclohexyl)methyl)isoindolin-2-yl)piperidine-2,6-dione]	71	131	> 1000	
O=C1CCC(N2Cc3cc(C[C@H]4CCCC[C@@H]4NC4CCC4)ccc3C2=O)C(=O)N1 (stereo partly drawn) [Example 48, 3-(5-(((1R,2S)-2-(cyclobutylamino)cyclohexyl)methyl)-1-oxoisoindolin-2-yl)piperidine-2,6-dione]	96	24	> 1000	
O=C1CCC(N2Cc3cc(C[C@H]4CCCC[C@@H]4NCc4ccc(F)cn4)ccc3C2=O)C(=O)N1 (stereo partly drawn) [Example 49, 3-(5-(((1R,2S)-2-(((5-fluoropyridin-2-yl)methyl)amino)cyclohexyl)methyl)-1-oxoisoindolin-2-yl)piperidine-2,6-dione]	66	88	> 1000	
O=C1CCC(N2Cc3cc(C[C@H]4CCCC[C@@H]4NCc4ncccc4F)ccc3C2=O)C(=O)N1 (stereo partly drawn) [Example 50, 3-(5-(((1R,2S)-2-(((3-fluoropyridin-2-yl)methyl)amino)cyclohexyl)methyl)-1-oxoisoindolin-2-yl)piperidine-2,6-dione]	57	111	> 1000	
O=C1CCC(N2Cc3cc(C[C@H]4CCCC[C@@H]4NCc4cncc(F)c4)ccc3C2=O)C(=O)N1 (stereo partly drawn) [Example 51, 3-(5-(((1R,2S)-2-(((5-fluoropyridin-3-yl)methyl)amino)cyclohexyl)methyl)-1-oxoisoindolin-2-yl)piperidine-2,6-dione]	80	45	> 1000	
O=C1CCC(N2Cc3cc(C[C@H]4CCCC[C@@H]4N4CC(c5ccccc5)C4)ccc3C2=O)C(=O)N1 (stereo partly drawn) [Example 55, 3-(1-oxo-5-(((1R,2S)-2-(3-phenylazetidin-1-yl)cyclohexyl)methyl)isoindolin-2-yl)piperidine-2,6-dione]	87	25	> 1000	
CC(C)(C)CN[C@H]1CCCC[C@@H]1Cc1ccc2c(c1)CN(C1CCC(=O)NC1=O)C2=O (stereo partly drawn) [Example 57, 3-(5-(((1R,2S)-2-(neopentylamino)cyclohexyl)methyl)-1-oxoisoindolin-2-yl)piperidine-2,6-dione]	89	25	> 1000	
O=C1CCC(N2Cc3cc(C[C@H]4CCCC[C@@H]4NCc4cnccn4)ccc3C2=O)C(=O)N1 (stereo partly drawn) [Example 59, 3-(1-oxo-5-(((1R,2S)-2-((pyrazin-2-ylmethyl)amino)cyclohexyl)methyl)isoindolin-2-yl)piperidine-2,6-dione]	77	75	> 1000	
O=C1CCC(N2Cc3cc(C[C@H]4CCCC[C@@H]4NCC4OCCO4)ccc3C2=O)C(=O)N1 (stereo partly drawn) [Example 60, 3-(5-(((1R,2S)-2-(((1,3-dioxolan-2-yl)methyl)amino)cyclohexyl)methyl)-1-oxoisoindolin-2-yl)piperidine-2,6-dione]	63	65	> 1000	
O=C1CCC(N2Cc3cc(C[C@H]4CCCC[C@@H]4NCc4cccnc4F)ccc3C2=O)C(=O)N1 (stereo partly drawn) [Example 62]	79	56	> 1000	
C[C@H](N[C@H]1CCCC[C@@H]1Cc1ccc2c(c1)CN(C1CCC(=O)NC1=O)C2=O)c1ccccc1 (stereo partly drawn) [Example 66, 3-(1-oxo-5-(((1R,2S)-2-(((S)-1-phenylethyl)amino)cyclohexyl)methyl)isoindolin-2-yl)piperidine-2,6-dione]	89	17	> 1000	
O=C1CCC(N2Cc3cc(C[C@H]4CCCC[C@@H]4N4CC(OCC5CC5)C4)ccc3C2=O)C(=O)N1 (stereo partly drawn) [Example 67, 3-(5-(((1R,2S)-2-(3-(cyclopropylmethoxy)azetidin-1-yl)cyclohexyl)methyl)-1-oxo-isoindolin-2-yl)piperidine-2,6-dione]	74	30	> 1000	
O=C1CCC(N2Cc3cc(C[C@H]4CCCC[C@@H]4NCC4CCOC4)ccc3C2=O)C(=O)N1 (stereo partly drawn) [Example 69]	91	19	> 1000	
O=C1CCC(N2Cc3cc(C[C@H]4CCCC[C@@H]4N(CC4CCOCC4)CC4CCOCC4)ccc3C2=O)C(=O)N1 (stereo partly drawn) [Example 70]	48	80	> 1000	
O=C1CCC(N2Cc3cc(C[C@H]4CCCC[C@@H]4NC4COC4)ccc3C2=O)C(=O)N1 (stereo partly drawn) [Example 72]	83	35	> 1000	
CCOC1CC(N[C@H]2CCCC[C@@H]2Cc2ccc3c(c2)CN(C2CCC(=O)NC2=O)C3=O)C1 (stereo partly drawn) [Example 75]	95	7	888	51
COc1ccccc1CCN[C@H]1CCCC[C@@H]1Cc1ccc2c(c1)CN(C1CCC(=O)NC1=O)C2=O (stereo partly drawn) [Example 76]	84	34	> 1000	
CC(COc1ccccc1)N[C@H]1CCCC[C@@H]1Cc1ccc2c(c1)CN(C1CCC(=O)NC1=O)C2=O (stereo partly drawn) [Example 77]	90	11	> 1000	
CCOCC(C)N[C@H]1CCCC[C@@H]1Cc1ccc2c(c1)CN(C1CCC(=O)NC1=O)C2=O (stereo partly drawn) [Example 78]	92	16	> 1000	
O=C1CCC(N2Cc3cc(C[C@H]4CCCC[C@@H]4NC4CC5(COC5)C4)ccc3C2=O)C(=O)N1 (stereo partly drawn) [Example 80, 3-(5-(((1R,2S)-2-((2-oxaspiro[3.3]heptan-6-yl)amino)cyclohexyl)methyl)-1-oxoisoindolin-2-yl)piperidine-2,6-dione]	95	33	299	32
O=C1CCC(N2Cc3cc(C[C@H]4CCCC[C@@H]4NCC45CCC(CC4)CC5)ccc3C2=O)C(=O)N1 (stereo partly drawn) [Example 83, 3-(5-(((1R,2S)-2-((bicyclo[2.2.2]octan-1-ylmethyl)amino)cyclohexyl)methyl)-1-oxoisoindolin-2-yl)piperidine-2,6-dione]	92	37	> 1000	
O=C1CCC(N2Cc3c(ccc(C[C@H]4CCCC[C@@H]4NC4CCCCC4)c3F)C2=O)C(=O)N1 (stereo partly drawn) [Example 88, 3-(5-(((1R,2S)-2-(cyclohexylamino)cyclohexyl)methyl)-4-fluoro-1-oxoisoindolin-2-yl)piperidine-2,6-dione]	99	1	101	38

Next, values leading:

Dmax (IKZF2) [%]	DC50 (IKZF2) [nM]	DC50 (IKZF1) [nM]	Dmax (IKZF1) [%]	SMILES
93	6	> 1000		O=C1CCC(N2Cc3cc(C[C@H]4CCCC[C@@H]4NC4CC4)ccc3C2=O)C(=O)N1 (stereo partly drawn) [Example 47, 3-(5-(((1R,2S)-2-(cyclopropylamino)cyclohexyl)methyl)-1-oxoisoindolin-2-yl)piperidine-2,6-dione]
86	31	> 1000		CC(C)N[C@H]1CC=CC[C@@H]1Cc1ccc2c(c1)CN(C1CCC(=O)NC1=O)C2=O (stereo partly drawn) [Example 54, 3-(5-(((1R,6S)-6-(isopropylamino)cyclohex-3-en-1-yl)methyl)-1-oxoisoindolin-2-yl)piperidine-2,6-dione]
75	46	206	34	O=C1CCC(N2Cc3cc(C[C@H]4CCCC[C@@H]4NCc4cccnc4C(F)(F)F)ccc3C2=O)C(=O)N1 (stereo partly drawn) [Example 58, 3-(1-oxo-5-(((1R,2S)-2-(((2-(trifluoromethyl)pyridin-3-yl)methyl)amino)cyclohexyl)methyl)isoindolin-2-yl)piperidine-2,6-dione]
95	23	> 1000		C[C@@H](N[C@H]1CCCC[C@@H]1Cc1ccc2c(c1)CN(C1CCC(=O)NC1=O)C2=O)c1ccccc1 (stereo partly drawn) [Example 61, 3-(1-oxo-5-(((1R,2S)-2-(((R)-1-phenylethyl)amino)cyclohexyl)methyl)isoindolin-2-yl)piperidine-2,6-dione]
64	48	> 1000		O=C1CCC(N2Cc3cc(C[C@H]4CCCC[C@@H]4NCCOc4ccccc4Cl)ccc3C2=O)C(=O)N1 (stereo partly drawn) [Example 65]
91	31	> 1000		O=C1CCC(N2Cc3cc(C[C@H]4CCCC[C@@H]4NCC4COC4)ccc3C2=O)C(=O)N1 (stereo partly drawn) [Example 68, 3-(5-(((1R,2S)-2-((oxetan-3-ylmethyl)amino)cyclohexyl)methyl)-1-oxoisoindolin-2-yl)piperidine-2,6-dione]
89	37	> 1000		O=C1CCC(N2Cc3cc(C[C@H]4CCCC[C@@H]4NCC4CCOCC4)ccc3C2=O)C(=O)N1 (stereo partly drawn) [Example 71]
95	7	> 1000		O=C1CCC(N2Cc3cc(C[C@H]4CCCC[C@@H]4NC4CCOC4)ccc3C2=O)C(=O)N1 (stereo partly drawn) [Example 73]
96	4	28	41	O=C1CCC(N2Cc3c(ccc(C[C@H]4CCCC[C@@H]4NCC4CC(F)(F)C4)c3F)C2=O)C(=O)N1 (stereo partly drawn) [Example 81, 3-(5-(((1R,2S)-2-(((3,3-difluorocyclobutyl)methyl)amino)cyclohexyl)methyl)-4-fluoro-1-oxoisoindolin-2-yl)piperidine-2,6-dione]
97	12	141	34	O=C1CCC(N2Cc3cc(C[C@H]4CCCC[C@@H]4NC4CCC5(CC4)COC5)ccc3C2=O)C(=O)N1 (stereo partly drawn) [Example 86, 3-(5-(((1R,2S)-2-((2-oxaspiro[3.5]nonan-7-yl)amino)cyclohexyl)methyl)-1-oxoisoindolin-2-yl)piperidine-2,6-dione]
